# Assays:
# Format in all cases: functional, cell-based
# DU-145 = assay: Antiproliferative activity against human AR-negative DU-145 cells assessed as cell growth inhibition incubated for 3 days by WST-1 assay; settings: DU-145, 72 h
# PC-3 = assay: Antiproliferative activity against human AR-negative PC-3 cells assessed as cell growth inhibition incubated for 3 days by WST-1 assay; settings: PC-3, 72 h
# LNCaP = assay: Antiproliferative activity against human AR-positive LNCaP cells assessed as cell growth inhibition incubated for 3 days by WST-1 assay; settings: 72 h
# CWR22R = assay: Antiproliferative activity against human AR-positive 22Rv1 cells assessed as cell growth inhibition incubated for 3 days by WST-1 assay; settings: 22Rv1, 72 h
IC50 (DU-145) [µM],IC50 (PC-3) [µM],IC50 (LNCaP) [µM],SMILES,IC50 (CWR22R) [µM]
> 10,> 10,> 10,O=C(O)COCCOCCn1cc(CCOc2ccc(Cl)cc2C(=O)Nc2ccc([N+](=O)[O-])cc2Cl)nn1,> 10
> 10,2.79,1.04,Cc1ncsc1-c1ccc(CNC(=O)[C@@H]2C[C@@H](O)CN2C(=O)[C@@H](NC(=O)COCCOCCn2cc(CCOc3ccc(Cl)cc3C(=O)Nc3ccc([N+](=O)[O-])cc3Cl)nn2)C(C)(C)C)cc1,6.88
> 10,> 10,> 10,O=C(O)COCCOCCOc1ccc(Cl)cc1C(=O)Nc1ccc([N+](=O)[O-])cc1Cl,> 10
> 10,> 10,3.08,CC(C)(C)OC(=O)COCCOCCn1cc(CCOc2ccc(Cl)cc2C(=O)Nc2ccc([N+](=O)[O-])cc2Cl)nn1,> 10

# Further lines, the compound ahead of its results:
SMILES,IC50 (DU-145) [µM],IC50 (PC-3) [µM],IC50 (LNCaP) [µM],IC50 (CWR22R) [µM]
Cc1ncsc1-c1ccc(CNC(=O)[C@@H]2C[C@@H](O)CN2C(=O)[C@@H](NC(=O)COCCOCCOc2ccc(Cl)cc2C(=O)Nc2ccc([N+](=O)[O-])cc2Cl)C(C)(C)C)cc1,> 10,2.34,2.37,4.94
C#CCCOc1ccc(Cl)cc1C(=O)Nc1ccc([N+](=O)[O-])cc1Cl,> 10,> 10,> 10,> 10
CC(C)(C)OC(=O)COCCOCCN=[N+]=[N-],> 10,> 10,> 10,> 10
O=C(Nc1ccc([N+](=O)[O-])cc1Cl)c1cc(Cl)ccc1O [NICLOSAMIDE],3.65,1.92,0.8,1.61

# From ChEMBL document CHEMBL5113459 (Bioorg Med Chem Lett, 2022)
